Among the data in US12122778B2, “Activating pyruvate kinase R” (Novo Nordisk Health Care AG, priority 2018, dated 2024) are activation, AC50 and Emax values, retold here.

This test concerns the target PKR(wt) (Homo sapiens, UniProt P30613). In words: Luminescence Biochemical Assay (Kinase Glo Plus), wild type PKR. The note with it: without FBP; for activation at 1.54 µM: 1.54 μM compound, read-out: AC50 LUM KGP woFBP % Fold@1.54 μM mean; for AC50: read-out: AC50 LUM KGP woFBP AC50 μM gmean; for Emax: read-out: AC50 LUM KGP woFBP MAX % FOLD mean. Here is the method: In some embodiments, a PKR Activating Compound can have: (1) an AC50 value of less than 0.1 μM (e.g., compounds with AC50 values of “+++” in Table 13), 0.1-1.0 μM (e.g., compounds with AC50 values of “++” in Table 13), or 1.01-40 μM (e.g., compounds with AC50 values of “+” in Table 13); (2) a MAX % Fold of 75%-250%, 250-500%, or 75%-500%; and/or (3) a % Fold@1.54 μM of 75%-250%, 250-500%, or 75%-500%. In some embodiments, a PKR Activating Compound has (1) an AC50 value of less than 1.0 μM; (2) a MAX % Fold of 75%-500%; and/or (3) a % Fold@1.54 μM of 75%-500%.
The phosphorylation of Adenosine-5′-diphosphate (ADP) by various mutants of PKR was determined by the Kinase Glo Plus Assay (Promega) in the presence or absence of FBP [D-Fructose-1,6-diphosphate; BOC Sciences, CAS: 81028-91-3] as follows. Unless otherwise indicated, all reagents were purchased from Sigma-Aldrich. All reagents were prepared in buffer containing 50 mM Tris-HCl, 100 mM KCl, 5 mM MgCl2, and 0.01% Triton X100, 0.03% BSA, and 1 mM DTT. Enzyme and PEP [Phospho(enol) pyruvic acid] were added at 2× to all wells of an assay-ready plate containing serial dilutions of test compounds or DMSO vehicle. Final enzyme concentrations for PKR(wt), PKR(R510Q), and PKR(G332S) were 0.8 nM, 0.8 nM, and 10 nM respectively. Final PEP concentration was 100 μM. The Enzyme/PEP mixture was incubated with compounds for 30 minutes at RT before the assay was initiated with the addition of 2×ADP [Adenosine-5′-diphosphate] and KinaseGloPlus. Final concentration of ADP was 100 μM. […] For assays containing FBP, that reagent is added at 30 μM upon reaction initiation. Reactions were allowed to progress for 45 minutes at RT until luminescence was recorded by the BMG PHERAstar FS Multilabel Reader. All compounds were tested in triplicate at concentrations ranging from 42.5 μM to 2.2 nM in 0.83% DMSO.
Luminescence values were converted to % Fold increase by normalizing to the average of the DMSO control and multiplying by 100. Max, min, slope and AC50 were determined by the standard four parameter fit algorithm of ActivityBase XE Runner. Compounds were evaluated with three parameters—AC50, MAX % Fold, and % Fold@1.54 μM (FIG. 1). The AC50 value for a compound is the concentration (μM) corresponding to the midway between the maximum and minimum values of the four parameter logistic curve fit (i.e., at which the % fold increase along the four parameter logistic curve fit is halfway between MAX % Fold and MIN % Fold (% Fold Midpoint)), MAX % Fold is the highest fold increase observed at any concentration of compound, and % Fold@1.54 μM is the fold increase at a compound concentration of 1.54 μM. The parameter % Fold@1.54 μM was selected to capture elements of both the AC50 and MAX % Fold and to provide a ranking based on both potency and effect. The compound concentration of 1.54 μM was chosen as one that can optimally differentiate the set of compounds based on the range of activities observed.
As set forth in Table 13 below, AC50 values (columns A, D, G) are defined as follows: ≤0.1 μM (+++); >0.1 μM and ≤1.0 μM (++); >1.0 μM and ≤40 μM (+); >40 μM (0). Max % FOLD values (columns B, E, H) are defined as follows: ≤75% (+); >75% and ≤250% (++); >250% and ≤500% (+++). % Fold@1.54 μM values (columns C, F, J) are defined as follows: ≤75% (+); >75% and ≤250% (++); >250% and ≤50000 (+++).
For orientation: In Kinase-Glo more light means more ATP remaining.

PKR(wt), sequence (P30613 whole entry): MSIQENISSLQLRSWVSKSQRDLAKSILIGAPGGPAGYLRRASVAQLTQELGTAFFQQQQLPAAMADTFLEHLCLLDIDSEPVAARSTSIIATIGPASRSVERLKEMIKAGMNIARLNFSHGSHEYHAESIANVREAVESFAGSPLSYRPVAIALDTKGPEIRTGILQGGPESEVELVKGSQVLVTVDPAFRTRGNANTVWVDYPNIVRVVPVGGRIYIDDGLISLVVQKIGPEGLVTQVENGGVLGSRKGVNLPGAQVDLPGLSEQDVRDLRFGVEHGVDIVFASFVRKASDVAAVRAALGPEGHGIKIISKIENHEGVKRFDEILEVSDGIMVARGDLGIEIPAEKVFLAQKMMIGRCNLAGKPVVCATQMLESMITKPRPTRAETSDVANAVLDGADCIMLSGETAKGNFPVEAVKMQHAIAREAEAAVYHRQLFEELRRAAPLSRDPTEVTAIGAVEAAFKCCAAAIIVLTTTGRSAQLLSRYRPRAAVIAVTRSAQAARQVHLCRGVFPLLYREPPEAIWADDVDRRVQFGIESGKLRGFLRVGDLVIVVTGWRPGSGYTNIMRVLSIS

As a reminder, the AC50 is the concentration at which the activity in the assay is half-maximal. With `O=C(c1csc(Nc2cccnc2)n1)N1CC2=C(C1)CN(S(=O)(=O)c1ccc3occc3c1)C2` [Example 18-79, N-{4-[5-(1-benzofuran-5-sulfonyl)-1H,2H,3H,4H,5H,6H-pyrrolo[3,4-c]pyrrole-2-carbonyl]-1,3-thiazol-2-yl}pyridin-3-amine], the activation at 1.54 µM is 250 to 50000%, the half-maximal activity concentration (AC50) was 0.1 to 1 µM and the Emax lay within 250 to 500%.

Consider `O=C(c1cnc(C(F)(F)F)nc1)N1CC2=C(C1)CN(S(=O)(=O)c1ccc3occc3c1)C2` [Example 18-86, 5-[5-(1-Benzofuran-5-sulfonyl)-1H,2H,3H,4H,5H,6H-pyrrolo[3,4-c]pyrrole-2-carbonyl]-2-(trifluoromethyl)pyrimidine], for which the activation at 1.54 µM was 75 to 250%, the AC50 was 1 to 40 µM and the Emax was 75 to 250%.

In the case of `O=C([C@H](O)c1ccccc1)N1CC2=C(C1)CN(S(=O)(=O)c1cc(F)ccc1Cl)C2` [Example 18-57, (2R)-1-[5-(2-chloro-5-fluorobenzenesulfonyl)-1H,2H,3H,4H,5H,6H-pyrrolo[3,4-c]pyrrol-2-yl]-2-hydroxy-2-phenylethan-1-one], the activation at 1.54 µM was in the range of 75 to 250%, the AC50 fell in the range of 0.1 to 1 µM and the Emax fell in the range of 75 to 250%.

Regarding `O=C(OCc1cccnc1)N1CC2=C(C1)CN(S(=O)(=O)c1ccc3occc3c1)C2` [Example 22-7, Pyridin-3-ylmethyl 5-(1-benzofuran-5-sulfonyl)-1H,2H,3H,4H,5H,6H-pyrrolo[3,4-c]pyrrole-2-carboxylate], the activation at 1.54 µM lay in the range of 250 to 50000%, the half-maximal activity concentration (AC50) lay in the range of 0.1 to 1 µM and the Emax fell in the range of 250 to 500%.

In the case of `CN(C)CCC(=O)N1CC2=C(C1)CN(S(=O)(=O)c1ccc3occc3c1)C2` [Example 1-5, 1-(5-(Benzofuran-5-ylsulfonyl)-3,4,5,6-tetrahydropyrrolo[3,4-c]pyrrol-2(1H)-yl)-3-(dimethylamino)propan-1-one], the activation at 1.54 µM lay within 75 to 250%, the AC50 fell in the range of 1 to 40 µM and the Emax lay within 75 to 250%.

In the case of `O=C(NCC1CCOC1)N1CC2=C(C1)CN(S(=O)(=O)c1ccc3occc3c1)C2` (stereo not drawn) [Example 3-5, 5-(Benzofuran-5-ylsulfonyl)-N-((tetrahydrofuran-3-yl)methyl)-3,4,5,6-tetrahydropyrrolo[3,4-c]pyrrole-2(1H)-carboxamide], the activation at 1.54 µM was 75 to 250%, the AC50 was 1 to 40 µM and the Emax was in the range of 75 to 250%.

In the case of `O=C(c1ccccn1)N1CC2=C(C1)CN(S(=O)(=O)c1ccc3occc3c1)C2` [Example 18-83, 2-[5-(1-Benzofuran-5-sulfonyl)-1H,2H,3H,4H,5H,6H-pyrrolo[3,4-c]pyrrole-2-carbonyl]pyridine], the activation at 1.54 µM lay in the range of 75 to 250%, the concentration at half-maximal activity (AC50) was in the range of 1 to 40 µM and the Emax was 75 to 250%.

Turning to `COc1ccc(CNC(=O)N2CC3=C(C2)CN(S(=O)(=O)c2cccnc2)C3)cc1` [Example 20-2, N-[(4-methoxyphenyl)methyl]-5-(pyridine-3-sulfonyl)-1H,2H,3H,4H,5H,6H-pyrrolo[3,4-c]pyrrole-2-carboxamide], the activation at 1.54 µM is 75 to 250%, the half-maximal activity concentration (AC50) was 0.1 to 1 µM and the Emax was 250 to 500%.

With `Cc1cnc(C(=O)N2CC3=C(C2)CN(S(=O)(=O)c2ccc4occc4c2)C3)cn1` [Example 18-82, 2-[5-(1-Benzofuran-5-sulfonyl)-1H,2H,3H,4H,5H,6H-pyrrolo[3,4-c]pyrrole-2-carbonyl]-5-methylpyrazine], the activation at 1.54 µM is 75 to 250%, the half-maximal activity concentration (AC50) is 1 to 40 µM and the Emax is 75 to 250%.

Regarding `O=C(NCc1cccnc1)N1CC2=C(C1)CN(S(=O)(=O)c1ccc3occc3c1)C2` [Example 3-4, 5-(Benzofuran-5-ylsulfonyl)-N-(pyridin-3-ylmethyl)-3,4,5,6-tetrahydropyrrolo[3,4-c]pyrrole-2(1H)-carboxamide], the activation at 1.54 µM lay in the range of 75 to 250%, the AC50 was 0.1 to 1 µM and the Emax lay within 75 to 250%.

In the case of `NS(=O)(=O)c1ccc(S(=O)(=O)N2CC3=C(CN(C(=O)[C@H](O)c4ccccc4)C3)C2)cc1` [Example 13-1, (R)-4-((5-(2-hydroxy-2-phenylacetyl)-3,4,5,6-tetrahydropyrrolo[3,4-c]pyrrol-2(1H)-yl)sulfonyl)benzenesulfonamide], the activation at 1.54 µM was in the range of 75 to 250%, the concentration at half-maximal activity (AC50) is 1 to 40 µM and the Emax lay within 75 to 250%.

For the compound `CN1CCOc2ccc(S(=O)(=O)N3CC4=C(CN(C(=O)C5CCCC5)C4)C3)cc21` [Example 18-78, 6-({5-Cyclopentanecarbonyl-1H,2H,3H,4H,5H,6H-pyrrolo[3,4-c]pyrrol-2-yl}sulfonyl)-4-methyl-3,4-dihydro-2H-1,4-benzoxazine], the activation at 1.54 µM was 75 to 250%, the AC50 is 1 to 40 µM and the Emax fell in the range of 75 to 250%.

Take `Cc1nc(C)c(C(=O)N2CC3=C(C2)CN(S(=O)(=O)c2ccc4occc4c2)C3)s1` [Example 18-85, 5-[5-(1-Benzofuran-5-sulfonyl)-1H,2H,3H,4H,5H,6H-pyrrolo[3,4-c]pyrrole-2-carbonyl]-2,4-dimethyl-1,3-thiazole]: the activation at 1.54 µM lay within 75 to 250%, the AC50 lay within 1 to 40 µM and the Emax was 75 to 250%.

With `CS(=O)(=O)NCC(=O)N1CC2=C(C1)CN(S(=O)(=O)c1ccc3occc3c1)C2` [Example 1-1, N-(2-(5-(benzofuran-5-ylsulfonyl)-3,4,5,6-tetrahydropyrrolo[3,4-c]pyrrol-2(1H)-yl)-2-oxoethyl)methanesulfonamide], the activation at 1.54 µM lay in the range of 75 to 250%, the half-maximal activity concentration (AC50) lay in the range of 0.1 to 1 µM and the Emax lay within 75 to 250%.

On to `O=C(CCC(F)F)N1CC2=C(C1)CN(S(=O)(=O)c1ccc3occc3c1)C2` [Example 1-2, 1-(5-(Benzofuran-5-ylsulfonyl)-3,4,5,6-tetrahydropyrrolo[3,4-c]pyrrol-2(1H)-yl)-4,4-difluorobutan-1-one], for which the activation at 1.54 µM fell in the range of 75 to 250%, the AC50 was in the range of 0.1 to 1 µM and the Emax fell in the range of 250 to 500%.

For `O=C(NCc1ccco1)N1CC2=C(C1)CN(S(=O)(=O)c1ccc3ncsc3c1)C2` [Example 21-1, 5-(Benzo[d]thiazol-6-ylsulfonyl)-N-(furan-2-ylmethyl)-3,4,5,6-tetrahydropyrrolo[3,4-c]pyrrole-2(1H)-carboxamide], the activation at 1.54 µM was 250 to 50000%, the AC50 was at most 0.1 µM and the Emax fell in the range of 250 to 500%.

For `O=C(OCc1cccc(F)c1)N1CC2=C(C1)CN(S(=O)(=O)c1ccc3occc3c1)C2` [Example 22-6, (3-Fluorophenyl)methyl 5-(1-benzofuran-5-sulfonyl)-1H,2H,3H,4H,5H,6H-pyrrolo[3,4-c]pyrrole-2-carboxylate], the activation at 1.54 µM was in the range of 250 to 50000%, the half-maximal activity concentration (AC50) was in the range of 0.1 to 1 µM and the Emax fell in the range of 250 to 500%.

On to `CN1CCOc2ccc(S(=O)(=O)N3CC4=C(CN(C(=O)[C@@H]5CCCO5)C4)C3)cc21` [Example 18-77, 4-Methyl-6-({5-[(2S)-oxolane-2-carbonyl]-1H,2H,3H,4H,5H,6H-pyrrolo[3,4-c]pyrrol-2-yl}sulfonyl)-3,4-dihydro-2H-1,4-benzoxazine], for which the activation at 1.54 µM fell in the range of 75 to 250%, the half-maximal activity concentration (AC50) lay within 1 to 40 µM and the Emax lay within 75 to 250%.
